Assay [1] relates to P. gingivalis 33277. Nature of the assay: Invasion of P. gingivalis cells into HOKs (confocal microscopy). The class given is cell-based, Porphyromonas gingivalis. The settings on record: for P. gingivalis cell entry into HOKs: vs untreated HOKs. An excerpt:
Nuclei were stained with DAPI (Invitrogen).

In another assay the test system is microtubules in HOKs. Put plainly: Microtubule arrangement in HOKs (anti-α-tubulin staining, confocal microscopy). The format is cell-based, human. The settings on record: 30 μM.
In a further assay the test system is actin in HOKs. Nature of the assay: Actin arrangement in HOKs (anti-actin staining, confocal microscopy). The class given is cell-based, human. Conditions: treated for 0, 10, 30 min or 2 h.
Another assay relates to fimA. Nature of the assay: Gene expression in P. gingivalis (qRT-PCR). Conditions: 30 μM, 16 h. Background: In qPCR the cycle at which signal appears reflects the starting amount.
Assay [2] deals with P. gingivalis 33277. Put plainly: Exit of intracellular P. gingivalis cells from HOKs. Conditions: 30 μM, 20 h, with gentamicin and metronidazole.
The test system of the next assay is P. gingivalis vesicles. Put plainly: Invasion of P. gingivalis outer membrane vesicles into HOKs (confocal microscopy). Conditions: for reduction of the total number of HOKs with intracellular vesicles: vs HOKs unexposed to compound, P<0.001; for inhibitory efficiency on internalization of P. gingivalis vesicles (comparison of compounds): vs DMSO control.
In another assay the test system is P. gingivalis. The settings on record: literature [21]; cited from earlier work.
Where [3] appears, read: after removal of compounds from growth media.

Structures are written as SMILES. “Also recorded” adds a separate entry of the source.

Experimental for P. gingivalis vesicles: Human oral keratinocytes (HOKs) were purchased from ScienCell Research Laboratories (Carlsbad, CA) and cultured in specific media, according to the manufacturer's instructions. Prior to treatment, HOKs (2×10^4) were seeded and grown overnight in poly-L-lysine-coated 35 mm glass bottom dishes (MatTek Corporation) at 37° C., 5% CO2, then exposed to P. gingivalis 33277 (2×10^6) or its vesicles (100 ng) for 0 or proper experimental times. To examine the role of Alop1 and dynasore in the bacterial invasion, the compounds were added to the medium 10 min prior to infection.
HOKs were fixed with 3.8% formaldehyde in a sodium phosphate buffer at room temperature for 10 min after treatment, permeabilized with 0.1% Triton X-100 for 10 min, and blocked with 5% bovine serum albumin in PBS for 1 h. HOKs were then immunostained with pan-specific antibodies of P. gingivalis 33277, and α Tubulin or Actin mono-antibodies (Santa Cruz Biotechnology, Dallas, Texas), followed by goat anti-rabbit IgG conjugated to Alex Fluor 546 (Invitrogen). Nuclei were stained with DAPI (Invitrogen). Confocal images were acquired using a Nikon A1R confocal microscope.
For infection rate determination, the number of HOKs with intercellular P. gingivalis cells or its vesicles were determined and divided by the total number of HOKs by counting the cells in 30 random areas (5.6 μm×5.6 μm) under the confocal microscope. Moreover, fluorescence intensity was determined in 100 individual cells using imaging software NIS-Elements AR 4.20, which reflects the level of intercellular P. gingivalis and its vesicles in the infected HOKs.

As for `O=C(N/N=C/c1ccc(O)c(O)c1)c1cc2ccccc2cc1O` [dynasore], the “host cell invasion by P. gingivalis” value in the assay with P. gingivalis 33277 [1] (at concentrations of 1.2, 6, and 30 μM in vitro) is reported as “inhibit host cell invasion”. Besides, the “P. gingivalis cell entry into HOKs” value in the assay with P. gingivalis 33277 [1] was “effectively block P. gingivalis cell entry into HOKs”. In addition, in the assay with microtubules in HOKs (setting [3]), the “reversibility of the effect on microtubule arrangement” value is reported as “reversible” and the “start of recovery of microtubule arrangement after compound removal” value is 2 h. In addition, the “microtubule arrangement in HOKs” value in the assay on microtubules in HOKs (observed 30 min after treatment) was “microtubules became more condensed and formed a cortical outer shell at the cell membrane”. For the same molecule, the “actin arrangement in HOKs” value with actin in HOKs was “alteration of actin arrangement was not detected”. Also, the “expression of fimA” value with fimA is “specifically inhibited expression of fimA”. In addition, the “exit of intracellular P. gingivalis from HOKs” value with P. gingivalis 33277 [2] was “no significant change in the fluorescence intensity; also recorded: able to block the bacterial exit from HOKs”. Besides, in the assay on P. gingivalis vesicles (6 μM, 2 h), the “reduction of the total number of HOKs with intracellular vesicles” value is given as 40%. Further, the “fluorescence intensity of internalized vesicles in HOKs” value in the assay with P. gingivalis vesicles (30 μM, 100 infected HOKs, vs non-exposed HOKs) was “significantly lower fluorescence intensity”. In the assay on P. gingivalis vesicles (30 μM, 2 h), the “inhibitory efficiency on internalization of P. gingivalis vesicles (comparison of compounds)” value is given as “highest efficiency” and the “reduction of the total number of HOKs with intracellular vesicles” value is on record as “over 95%”. For the same molecule, the “inhibitory activity on P. gingivalis vesicle invasion of HOKs, dose dependence” value with P. gingivalis vesicles (different doses, 2 h) is given as “dose-dependent manner”.
Regarding `C=C1[C@@H](C)[C@H]2[C@H](Cc3ccccc3)NC(=O)[C@]23[C@H](OC(C)=O)/C=C/[C@@](C)(O)C(=O)[C@@H](C)C/C=C/[C@H]3[C@@H]1O` [cytochalasin D, reference compound], the “P. gingivalis invasion of epithelial cells” value with P. gingivalis is on record as “inhibited P. gingivalis invasion of epithelial cells”. Also, in the assay on P. gingivalis vesicles (30 μM, 2 h), the “inhibitory efficiency on internalization of P. gingivalis vesicles (comparison of compounds)” value was “significant inhibitory activity was not observed”.
For the molecule `COC(=O)Nc1nc2ccc(C(=O)c3cccs3)cc2[nH]1` [nocodazole, reference compound], in the assay with P. gingivalis 33277 [1], the “P. gingivalis cell entry into HOKs” value was “effectively block P. gingivalis cell entry into HOKs”. In addition, the “P. gingivalis invasion of epithelial cells” value with P. gingivalis was “inhibited P. gingivalis invasion of epithelial cells”.

These data come from patent US12053460B2, “Inhibitors of intracellular invasion” (Meharry Medical College, priority 2016, dated 2024).
